System: 994946-033-R-J1-PDC complex spheroid viability
Assay: Anticancer human tumor 994946-033-R-J1-PDC patient-derived melanoma cell line growth inhibition [POLQ]
Settings: for IC50: curve of first compound; for viability, T/C: stronger effect = lower value
How it was run: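 Complex spheroid viability model combining PDC tumour cells with endothelial (HUVEC) and MSC stromal cells. Novobiocin, ART-558 or RP6685 were tested singly and in combination with standard and investigational anticancer drugs. Each was titrated in half-log steps from near clinical Cmax, or from 10 microM where Cmax was unknown.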

[1] = second compound 0.0316 µM, first compound 0.0316 µM
[2] = second compound 0.0316 µM, first compound 0.1 µM
[3] = second compound 0.0316 µM, first compound 0.316 µM
[4] = second compound 0.0316 µM, first compound 1 µM
[5] = second compound 0.1 µM, first compound 0.0316 µM
[6] = second compound 0.1 µM, first compound 0.1 µM
[7] = second compound 0.1 µM, first compound 0.316 µM
[8] = second compound 0.1 µM, first compound 1 µM
[9] = second compound 0.316 µM, first compound 0.0316 µM
[10] = second compound 0.316 µM, first compound 0.1 µM
[11] = second compound 0.316 µM, first compound 0.316 µM
[12] = second compound 0.316 µM, first compound 1 µM
[13] = second compound 1 µM, first compound 0.0316 µM
[14] = second compound 1 µM, first compound 0.1 µM
[15] = second compound 1 µM, first compound 0.316 µM
[16] = second compound 1 µM, first compound 1 µM
[17] = second compound 3.16 µM, first compound 0.0316 µM
[18] = second compound 3.16 µM, first compound 0.1 µM
[19] = second compound 3.16 µM, first compound 0.316 µM
[20] = second compound 3.16 µM, first compound 1 µM
[21] = second compound 10 µM, first compound 0.0316 µM
[22] = second compound 10 µM, first compound 0.1 µM
[23] = second compound 10 µM, first compound 0.316 µM
[24] = second compound 10 µM, first compound 1 µM
[25] = second compound 0.0316 µM, first compound 3.16 µM
[26] = second compound 0.0316 µM, first compound 10 µM
[27] = second compound 0.1 µM, first compound 3.16 µM
[28] = second compound 0.1 µM, first compound 10 µM
[29] = second compound 0.316 µM, first compound 3.16 µM
[30] = second compound 0.316 µM, first compound 10 µM
[31] = second compound 1 µM, first compound 3.16 µM
[32] = second compound 1 µM, first compound 10 µM
[33] = second compound 3.16 µM, first compound 3.16 µM
[34] = second compound 3.16 µM, first compound 10 µM
[35] = second compound 10 µM, first compound 3.16 µM
[36] = second compound 10 µM, first compound 10 µM
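Also: spheroids exposed to drugs for 7 days.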
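For viability, T/C in this document: 100% = DMSO vehicle treated spheroids.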

Work on `CCc1c2c(nc3ccc(O)cc13)-c1cc3c(c(=O)n1C2)COC(=O)[C@]3(O)CC` + Nc1ccc(C#CCN(C(=O)Cc2ncc(C(F)(F)F)cc2C(F)(F)F)c2ccc(F)cc2)nn1 yielded an IC50 (second compound 0.0316 µM) of less than 3.16 nM, an IC50 (second compound 0.1 µM) of less than 3.16 nM and an IC50 (second compound 0.316 µM) of less than 3.16 nM. It also gave an IC50 (second compound 1 µM) of less than 3.16 nM, an IC50 (second compound 3.16 µM) of less than 3.16 nM and an IC50 (second compound 10 µM) of less than 3.16 nM. The viability, T/C (second compound 0.0316 µM, first compound 0.00316 µM) was 27%, the viability, T/C (second compound 0.0316 µM, first compound 0.01 µM) was 13.4% and the viability, T/C [1] was 8.88%. The viability, T/C [2] was 5.83%, the viability, T/C [3] was 4.85% and the viability, T/C [4] was 1.91%. It also gave a viability, T/C (second compound 0.1 µM, first compound 0.00316 µM) of 23.6%, a viability, T/C (second compound 0.1 µM, first compound 0.01 µM) of 11.1% and a viability, T/C [5] of 7.44%. The viability, T/C [6] was 6.7%, the viability, T/C [7] was 7.41% and the viability, T/C [8] was 2.23%. The viability, T/C (second compound 0.316 µM, first compound 0.00316 µM) was 29.8%, the viability, T/C (second compound 0.316 µM, first compound 0.01 µM) was 10.9% and the viability, T/C [9] was 8.12%. The viability, T/C [10] was 7.25%, the viability, T/C [11] was 6.69% and the viability, T/C [12] was 2.59%. The viability, T/C (second compound 1 µM, first compound 0.00316 µM) was 20.8%, the viability, T/C (second compound 1 µM, first compound 0.01 µM) was 12.1% and the viability, T/C [13] was 6.5%. It also gave a viability, T/C [14] of 9.5%, a viability, T/C [15] of 5.03% and a viability, T/C [16] of 2.07%. For the same molecule, the viability, T/C (second compound 3.16 µM, first compound 0.00316 µM) was 26.3%, the viability, T/C (second compound 3.16 µM, first compound 0.01 µM) was 16.2% and the viability, T/C [17] was 8.04%. It also gave a viability, T/C [18] of 6.61%, a viability, T/C [19] of 6.79% and a viability, T/C [20] of 1.91%. The viability, T/C (second compound 10 µM, first compound 0.00316 µM) was 28%, the viability, T/C (second compound 10 µM, first compound 0.01 µM) was 14.1% and the viability, T/C [21] was 5.91%. For the same molecule, the viability, T/C [22] was 7.41%, the viability, T/C [23] was 8.18% and the viability, T/C [24] was 2.64%.
For `COc1cc(C2c3cc4c(cc3C(OC3OC5COC(C)OC5C(O)C3O)C3COC(=O)C23)OCO4)cc(OC)c1O` (stereo unspecified) + Nc1ccc(C#CCN(C(=O)Cc2ncc(C(F)(F)F)cc2C(F)(F)F)c2ccc(F)cc2)nn1, the IC50 (second compound 0.0316 µM) was 725 nM, the IC50 (second compound 0.1 µM) was 348 nM and the IC50 (second compound 0.316 µM) was 363 nM. It also gave an IC50 (second compound 1 µM) of 395 nM, an IC50 (second compound 3.16 µM) of 369 nM and an IC50 (second compound 10 µM) of 879 nM. It also gave a viability, T/C [1] of 70.3%, a viability, T/C [2] of 67.4% and a viability, T/C [3] of 68.8%. The viability, T/C [4] was 42%, the viability, T/C [25] was 19.9% and the viability, T/C [26] was 8.78%. The viability, T/C [5] was 86.1%, the viability, T/C [6] was 73.3% and the viability, T/C [7] was 42.3%. For the same molecule, the viability, T/C [8] was 43%, the viability, T/C [27] was 16.5% and the viability, T/C [28] was 6.05%. For the same molecule, the viability, T/C [9] was 87.1%, the viability, T/C [10] was 69.9% and the viability, T/C [11] was 54%. For the same molecule, the viability, T/C [12] was 32.4%, the viability, T/C [29] was 20.6% and the viability, T/C [30] was 9.78%. The viability, T/C [13] was 111%, the viability, T/C [14] was 77% and the viability, T/C [15] was 55.1%. The viability, T/C [16] was 35.4%, the viability, T/C [31] was 17.9% and the viability, T/C [32] was 10.3%. The viability, T/C [17] was 84.8%, the viability, T/C [18] was 70.5% and the viability, T/C [19] was 48%. It also gave a viability, T/C [20] of 41.3%, a viability, T/C [33] of 15.3% and a viability, T/C [34] of 5.78%. It also gave a viability, T/C [21] of 77.2%, a viability, T/C [22] of 70.4% and a viability, T/C [23] of 58.7%. It also gave a viability, T/C [24] of 53.3%, a viability, T/C [35] of 14.5% and a viability, T/C [36] of 7.34%.
With `O=c1[nH]cc(F)c(=O)[nH]1` + Nc1ccc(C#CCN(C(=O)Cc2ncc(C(F)(F)F)cc2C(F)(F)F)c2ccc(F)cc2)nn1 the IC50 (second compound 0.0316 µM) was greater than 10000 nM, the IC50 (second compound 0.1 µM) was greater than 10000 nM and the IC50 (second compound 0.316 µM) was greater than 10000 nM. The IC50 (second compound 1 µM) was greater than 10000 nM, the IC50 (second compound 3.16 µM) was 5540 nM and the IC50 (second compound 10 µM) was greater than 10000 nM. For the same molecule, the viability, T/C [1] was 104%, the viability, T/C [2] was 114% and the viability, T/C [3] was 92.5%. It also gave a viability, T/C [4] of 67.9%, a viability, T/C [25] of 62.8% and a viability, T/C [26] of 54%. It also gave a viability, T/C [5] of 101%, a viability, T/C [6] of 75.6% and a viability, T/C [7] of 93.7%. It also gave a viability, T/C [8] of 81%, a viability, T/C [27] of 60.1% and a viability, T/C [28] of 68.9%. The viability, T/C [9] was 81.9%, the viability, T/C [10] was 81.1% and the viability, T/C [11] was 104%. For the same molecule, the viability, T/C [12] was 70.8%, the viability, T/C [29] was 76.1% and the viability, T/C [30] was 63.1%. It also gave a viability, T/C [13] of 100%, a viability, T/C [14] of 83.1% and a viability, T/C [15] of 116%. The viability, T/C [16] was 61.1%, the viability, T/C [31] was 66.8% and the viability, T/C [32] was 50.8%. For the same molecule, the viability, T/C [17] was 97.2%, the viability, T/C [18] was 112% and the viability, T/C [19] was 81.2%. The viability, T/C [20] was 85.3%, the viability, T/C [33] was 49.2% and the viability, T/C [34] was 47%. For the same molecule, the viability, T/C [21] was 111%, the viability, T/C [22] was 51.9% and the viability, T/C [23] was 86.9%. The viability, T/C [24] was 67.6%, the viability, T/C [35] was 75.3% and the viability, T/C [36] was 42.4%.

— PubChem BioAssay AID1963827 (Molecular Pharmacology Branch, DTP, NCI, 2024)
